Results reported in US20210235699A1, “Adjuvant Compositions Comprising a Tetramethylguanidine and a 4-Isothiazolin-3-One” (Lonza, LLC, priority 2018, published 2021).

Key:
[1] = system: combined bacterial test inoculum: Acinetobacter calcoaceticus, Escherichia coli, Pseudomonas aeruginosa, Enterobacter cloacae; assay: Bacterial challenge test (ASTM D2574-97, modified) in standard water based interior paint; type: cell-based; settings: 50 ppm
Description: (§1) The following bacterial and fungal challenge tests were performed to ascertain whether low concentrations of 4-isothiazolin-3-one biocidal active compounds, pyrithione, coumarin or guanidine adjuvant are sufficient to prevent microbial contamination of final products when deliberately inoculated with spoilage microbes.
(§2) The tests were performed according to ASTM standard D2574-97 (Standard Test Method for Resistance of Emulsion Paints in the Container to Attack by Microorganisms, ASTM International, West Conshohocken, Pa.), with higher inoculation volumes and frequency. A standard water based interior paint was used as the test substrate. Sample sizes of 20 g test substrate were used and the test samples were prepared in a sterile 30 mL square Nalgene bottle.
The bacteria were grown on pH 5, 7, or 9 Trypticase Soy Agar (TSA) lawns. The bacteria were grown individually on TSA and harvested by using sterile buffered water. The bacterial lawns were washed off with 30 mL of sterile water and an equal volume of each individual cell suspension was withdrawn from each serum bottle to make a combined cell suspension. Combined bacterial suspension were about 10^7 cfu/mL, which provides about 10^6 cfu/mL in the sample.
(§3) The following microorganisms were used for inoculation of the tested samples:
(§4) For the bacterial challenge testing, each sample was inoculated with a combined bacterial test inoculum volume equivalent to 10% of the total initial sample volume for the initial inoculation, 5% of the total initial sample volume for the second inoculation and 2.5% of the total initial sample volume for the third inoculation. Inoculum volumes for the fungal challenge tests were 2%, 1% and 0.5% of the total initial sample volume, respectively. Samples were inoculated every 96 h.
(§5) Concentrations of biocidal active compounds and adjuvants refer to the final concentration in the test samples prior to the first inoculation.
(§6) The efficacy of the added agent in each sample was monitored by means of a streak plate test after 24 hours (all inoculations) and 72 hours of inoculation (first and second inoculation). At 72 hours of the third inoculation performed, a dilution plate count was performed in order to obtain a quantitative measurement of contamination (cfu/mL). A count of less than 10 colony forming units per mL ([…]) is considered to show no measurable contamination. For the streak plate tests, bacterial samples were streaked on Tryptic Soy Agar (TSA) and incubated for 48 hours at 30° C. before reading. Fungal samples were streaked on Potato Dextrose Agar (PDA) and incubated for 5 days at 25° C. before reading.
(§7) The streak plates were ranked from 0-5c according to the degree of microbial growth:
(§8) The challenge tests were performed as described above.

[2] = system: bacterial test inoculum (Acinetobacter calcoaceticus, Escherichia coli, Pseudomonas aeruginosa, Enterobacter cloacae); assay: Quick kill testing in pre-contaminated standard interior paint (dilution-plate counts); type: cell-based; settings: Table 9, 50 ppm, 30° C.
Description: An additional test was performed to analyze how quickly the tested biocidal compositions will recover a sample from microbial spoilage. For each sample, 20 g of a pre-contaminated standard interior paint formulation serving as a test substrate was weighed into a sterile container. All samples were contaminated with the bacterial test inoculum described above (10% of the of the total initial sample volume).
A dilution-plate count was performed on the untreated sample (0 hour time point) and a biocidal composition added aseptically to each sample. Subsequent to this treatment, further dilution-plate counts were performed at fixed time intervals (time points are given in hours) on each sample, including an untreated negative control. All samples were incubated at 30° C.±2° C.
Concentrations in ppm refer to final concentrations of the biocidal compositions in the test samples. The relative amounts of active compounds and adjuvant in the tested biocidal compositions were as indicated below: […]

[3] = system: fungal test inoculum: Aspergillus niger, Penicillium funiculosum, Candida albicans; assay: Fungal challenge test (ASTM D2574-97, modified) in standard water based interior paint; type: cell-based; settings: 50 ppm
Description: as §1, §2
Fungal lawns were grown on Potato Dextrose Agar (PDA) or Sabouraud Dextrose Agar (SAB). Individual fungal spore suspensions were harvested by adding 10 mL of sterile 0.05% Triton X to fungal lawns. The lawns were then gently agitated by rubbing a sterile swab on the lawn, being careful not to puncture the agar. The liquid was then aseptically transferred to a sterile bottle containing sterile glass beads. The top of the bottle was closed and the bottle shaken vigorously to break up any chunks in the suspension. The shaken spore suspension was decanted through sterile fibers into another sterile bottle. The decanted spore suspension was counted using a hemocytometer. Once the spore counts were determined, each suspension was diluted in order to obtain 10^6 spore/mL. Each diluted fungal suspension was poured into a sterile container.
as §3
as §4, with “Inoculum volumes for the fungal challenge tests were 2%, 1% and 0.5% of the total initial sample volume, respectively.” left out
as §5, §6, §7, §8

[4] = system: bacteria, fungi and yeast; settings: cited from earlier work
[5] = neutral pH; cited from earlier work

Compound: O=c1[nH]sc2ccccc12 [BIT, 1,2-benzisothiazolin-3-one]
- Dilution plate count, 3rd inoculation 72 h ([1]; inoculum 2.50%): 4.2 × 10^7 cfu/mL
- Streak plate rank, 3rd inoculation 24 h ([1]; inoculum 2.50%): 5 (5 = greater than 45 cfu)
- Streak plate rank, 2nd inoculation 72 h ([1]; inoculum 5%): 5 (5 = greater than 45 cfu)
- Streak plate rank, 1st inoculation 24 h ([1]; inoculum 10%): 5 (5 = greater than 45 cfu)
- Streak plate rank, 1st inoculation 72 h ([1]; inoculum 10%): 4 (4 = 31-45 cfu)
- Dilution-plate count T4 ([2]; 4 hours after treatment): 1.15 × 10^7
- Dilution-plate count T8 ([2]; 8 hours after treatment): 3.4 × 10^6
- Dilution-plate count T24 ([2]; 24 hours after treatment): 9.4 × 10^5
- Dilution plate count, 3rd inoculation 72 h ([3]; inoculum 0.50%): 2.0 × 10^2 cfu/mL
- Streak plate rank, 3rd inoculation 24 h ([3]; inoculum 0.50%): 5 (5 = greater than 45 cfu)
- Streak plate rank, 2nd inoculation 72 h ([3]; inoculum 1%): 1 (1 = 1-5 Colony Forming Unit (cfu))
- Streak plate rank, 1st inoculation 24 h ([3]; inoculum 2%): 5 (5 = greater than 45 cfu)
- Streak plate rank, 1st inoculation 72 h ([3]; inoculum 2%): 2 (2 = 6-15 cfu)
- amounts required for a reliable and quick biocidal activity [4]: up to 500 ppm

Compound: Zinc pyrithione
- solubility in water [5]: 8 ppm
